Test results reported in US20110152358A1, “Compositions and Methods for Diagnosis and Treatment of Pancreatic Ductal Cancer” (priority 2008, published 2011).
Entries after “also recorded” stand apart in the source; their conditions may differ.

Assays:
Assay type in all cases: cell-based, human
T3M4 cells [1] = experiment: in vitro wound-healing (migration) assay, shRNA infected T3M4 cells; settings: EGF 1 nmol/L; 24 hours; control shRNA, sh1 or sh2 infected cells; percentage change in wound area
Procedure: (§1) To assess the motility properties, in vitro wound-healing assays or migration assays were performed. Cells were grown to confluence in 6-well tissue culture plates, serum starved overnight, and the monolayer was scratched with a 200 μL pipette tip generating two parallel wounds. The scratched wells were washed to remove cell debris and incubated for the next 24 hours in serum free media in the absence or presence 1 nmol/L EGF with or without the Src family kinase inhibitor PP2 (4-amino-5-(4-chlorophenyl)-7-(t-butyl)pyrazolo[3,4-d]pyrimidine) (Alexis, La Jolla, Calif.). To monitor cell migration, photographs were taken of each well at five marked locations under 40× magnification immediately after wounding (t0) and again 24 hours after wounding (t24), using an inverted microscope fitted with a digital camera (Nikon Diaphot 300, Nikon, Japan). The wound area of five matched pictures at t0 and t24 from each well were then measured using the ImageJ software (NIH, Bethedsa, Md.), and the percentage change in the wound area was calculated.

T3M4 cells [2] = experiment: Matrigel cell invasion assay, shRNA infected T3M4 cells; settings: 18 hours
Procedure: (§2) Cell invasion was measured as reported previously, with some modification (Rowland-Goldsmith, M. A. et al. 2001. Clin. Cancer Res. 7:2931-2940). Briefly, cells were suspended in 500 μL of serum-free medium (0.1% BSA) and placed onto the upper compartment of Matrigel-coated transwell chambers (8 μm pore sized, BioCoat Matrigel Invasion Chambers, BD Biosciences, San Jose, Calif.). The lower compartment was filled with 750 μL of medium containing serum free media in the absence or presence of the respective growth factors. After 18-20 hours, cells on the upper surface of the filter were carefully removed with a cotton swab and the membranes were fixed in methanol. The cells that had migrated through the membrane to the lower surface of the filter were stained with toluidine blue (Fisher Scientific, Fair Lawn, N.J.) and counted using a light microscope.

PANC-1 cells [3] = experiment: Matrigel cell invasion assay, sham and 14-3-3σ overexpressing PANC-1 clones; settings: 20 hours
Procedure: as §2

PANC-1 cells [4] = experiment: in vitro wound-healing (migration) assay, sham and 14-3-3σ overexpressing PANC-1 clones; settings: EGF 1 nmol/L; serum free media; 24 hours
Procedure: as §1

PANC-1 cells [5] = experiment: cisplatinum induced apoptosis, immunoblot of cleaved PARP and cleaved caspase-3, PANC-1 clones; settings: 10 μg/mL cisplatinum; 24 hours
Procedure: (§3) Sham or 14-3-3σ transfected PANC-1 cells were incubated for 24 hours in complete medium in the absence or presence of 10 μg/mL of cisplatinum. Scrambled or 14-3-3σ specific shRNA infected T3M4 cells were incubated in complete medium for 24 hours that was supplemented with 10 μg/mL cisplatinum for the initial 2 or 6 hours, or the entire 24 hours. Both floating and adherent cells were then collected and lysed in the buffer containing protease inhibitors, subjected to 10% SDS-PAGE, and immunoblotted with specific antibodies against cleaved Poly (ADP-ribose) Polymerase (PARP) and cleaved caspase-3 (Cell Signaling Technology, Danvers, Mass.).

PANC-1 cells [6] = experiment: MTT assay, survival of PANC-1 clones with cisplatinum; settings: 10 μg/mL cisplatinum; 48 hours
Procedure: Sham-transfected PANC-1 cells and 14-3-3σ transfected clones (1×10^4) were plated in 96-well plates (six wells per sample). Cells were allowed to attach and grow for 48 hours in complete medium, and then treated with complete medium in the absence or presence of 10 μg/mL of cisplatinum (Sigma) for 48 hours, followed by the addition of MTT (3-[4,5-dimethylthiazol-2-yl]-2,5-diphenyltetrazolium bromide) (Sigma) at a final concentration 0.55 μg/mL. After an additional 4 hour incubation, absorbance at 570 nm was determined, with a reference of 650 nm, using a Emax precision microplate reader (Molecular devices, Sunnyvale, Calif.), as previously reported (Arnold, N. B. et al. 2004. Cancer Res. 64:3599-3606). It was previously determined that in pancreatic cancer cell lines the MTT assay correlates closely with cell growth as determined by cell counting and by assessing [^3H]thymidine incorporation (Raitano, A. B. and M. Korc. 1990. J. Biol. Chem. 265:10466-10472; Baldwin, R. L. and M. Korc. 1993. Growth Fact. 8:23-34).

T3M4 cells [7] = experiment: cisplatinum induced apoptosis, immunoblot of cleaved PARP and cleaved caspase-3, shRNA infected T3M4 cells; settings: cisplatinum 10 νg/mL for 2, 6, or 24 hours
Procedure: as §3

Molecule: EGF: EGF growth factor, ligand of the EGF receptor, added at 1 nmol/L (NSDSECPLSHDGYCLHDGVCMYIEALDKYACNCVVGYIGERCQYRDLKWWELR; UniProt P01133 971-1023, looked up)
- EGF stimulated motility (T3M4 cells [1]): about 50%
- invasion in 14-3-3σ downregulated cells (sh2 infected) compared to control shRNA infected cells (T3M4 cells [2]; EGF 1 nmol/L): marked increase
- invasion of sham transfected cells (PANC-1 cells [3]; EGF 1 nmol/L): not statistically significant
- invasion of 14-3-3σ overexpressing clones (PANC-1 cells [3]; EGF 1 nmol/L, clones C1 and C7): markedly enhanced
- motility of 14-3-3σ overexpressing cells (PANC-1 cells [4]): did not cause an additional increase in motility
- motility of sham-transfected cells (PANC-1 cells [4]): slight but significant increase

Molecule: COc1cc2ncnc(Nc3cccc(Br)c3)c2cc1OC [AG 1517, reference compound]
- effect on EGF induced invasion in 14-3-3σ downregulated cells (sh2 infected) (T3M4 cells [2]; EGF 1 nmol/L, AG 1517 1 μmol/L, PP2 10 μmol/L): suppressed

Molecule: N.N.[Cl][Pt][Cl] [cisplatinum]
- PARP cleavage in 14-3-3σ overexpressing clones compared with sham transfected cells (PANC-1 cells [5]): attenuated
- generation of cleaved caspase-3 in 14-3-3σ overexpressing clones compared with sham transfected cells (PANC-1 cells [5]): markedly decreased
- survival of 14-3-3σ overexpressing clones compared with Sham (MTT) (PANC-1 cells [6]): significant (p<0.01) increase
- apoptosis (PARP cleavage, caspase-3 activation) in 14-3-3σ silenced cells compared to non-silenced cells (T3M4 cells [7]): increased apoptosis

Molecule: C[S+]([O-])c1ccc(-c2nc(-c3ccncc3)c(-c3ccc(F)cc3)[nH]2)cc1 (stereo not drawn) [SB203580, reference compound]
- effect on EGF-mediated invasion in 14-3-3σ overexpressing clones (PANC-1 cells [3]; EGF 1 nmol/L, LY 294002 5 μmol/L, SB 203580 10 μmol/L, PP2 10 μmol/L, clone C1): suppressed; also recorded: completely blocked

Molecule: IGF-1: IGF-1 growth factor used as chemoattractant at 1 nmol/L
- IGF-1-mediated invasion in presence of endogenously high levels of 14-3-3σ (T3M4 cells [2]; IGF-1 1 nmol/L, non-silenced T3M4): robust
- IGF-1 effect on invasion in T3M4 cells in which 14-3-3σ was silenced (T3M4 cells [2]; IGF-1 1 nmol/L, sh1 or sh2 infected): markedly attenuated; also recorded: completely suppressed
- invasion of PANC-1 clones overexpressing 14-3-3σ compared to sham cells (PANC-1 cells [3]; IGF-1 1 nmol/L): significantly increased
